Three molecules from ChEMBL document CHEMBL1158005, “New 12a-hydroxyrotenoids from gliricidia sepium bark” (J Nat Prod, 1999) can be followed below.

≈ marks a conversion by molar mass, not a printed value.

A short description of this data set: Toxicity in Artemia salina larvae after 24 hrs. In kind it is organism-based. The conditions noted are these: in vivo.
With `COc1cc2c(cc1OC)[C@]1(O)C(=O)c3ccc(O)cc3O[C@@H]1CO2`, the LC50 (commonly the concentration lethal to half of the exposed cells or organisms) at 24 h worked out at 284 µg/mL (≈ 826 µM).
In the case of `COc1ccc2c(c1)OC[C@H]1Oc3cc(O)ccc3C(c3cc([C@@H]4COc5cc(O)ccc5C4)ccc3OC)[C@@]21O` (stereo partly drawn) [GLIRICIDIN], the 50% lethal concentration (LC50) at 24 h is 244 µg/mL (≈ 439 µM).
Take `COc1ccc2c(c1)OC[C@H]1Oc3cc(O)ccc3C(=O)[C@@]21O` [GLIRICIDOL]: the median lethal concentration (LC50) at 24 h turned out to be 50.7 µg/mL (≈ 161 µM). Against the preceding molecule, the LC50 at 24 h is about 4.8-fold lower.
